Results published in patent US9890117B2, “Benzamide compounds and related methods of use” (Northwestern University, priority 2012, dated 2018).

How the values were obtained:
[1] = biological target: T1, catalytically active fragment of SIRT3 (Homo sapiens, UniProt Q9NTG7); assay: Fluor-de-Lys biochemical sirtuin deacetylation assay, SIRT3 counter-screen; conditions: 10 μM counter-screen
T1 construct: the catalytically active fragment of SIRT3
T1 sequence (Q9NTG7 118-380 limits assumed): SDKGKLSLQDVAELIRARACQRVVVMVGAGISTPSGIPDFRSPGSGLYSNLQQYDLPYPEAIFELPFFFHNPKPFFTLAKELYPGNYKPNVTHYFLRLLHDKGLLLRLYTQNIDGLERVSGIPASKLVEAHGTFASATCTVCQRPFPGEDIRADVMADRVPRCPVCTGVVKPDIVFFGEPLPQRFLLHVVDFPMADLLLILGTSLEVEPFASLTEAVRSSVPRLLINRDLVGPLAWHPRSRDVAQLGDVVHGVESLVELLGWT
Protocol: (§1) To evaluate the potency and selectivity of the synthesized compounds robust, sensitive, and quantitative, biochemical sirtuin deacetylation assays were employed. (SIRT2 then SIRT1 and SIRT3 for selectivity). Sirtuin activity was assessed using the Fluor-de-Lys assay with recombinant active enzymes SIRT1, SIRT2, and the catalytically active fragment of SIRT3, as described in the literature. […] AK-1 was included as the reference compound with each assay. […] Those compounds also were subjected to SIRT1 and SIRT3 assays to determine sirtuin selectivity.
(§2) As discussed above, Tables 1-10 are presented and followed by details relating to the synthesis and characterization of compounds prepared. Inhibition assays and related testing of such compounds are conducted according to well-known literature protocols including those found in Silverman, et al., Biorg. Med. Chem. Lett. 22 (2012) 2789-2793 and the references cited therein, such references and tests incorporated herein by reference.

SIRT1 = biological target: T2, SIRT1 (Homo sapiens, UniProt Q96EB6); assay: Fluor-de-Lys biochemical sirtuin deacetylation assay, SIRT1 counter-screen; conditions: 10 μM counter-screen
T2 sequence (Q96EB6 1-747): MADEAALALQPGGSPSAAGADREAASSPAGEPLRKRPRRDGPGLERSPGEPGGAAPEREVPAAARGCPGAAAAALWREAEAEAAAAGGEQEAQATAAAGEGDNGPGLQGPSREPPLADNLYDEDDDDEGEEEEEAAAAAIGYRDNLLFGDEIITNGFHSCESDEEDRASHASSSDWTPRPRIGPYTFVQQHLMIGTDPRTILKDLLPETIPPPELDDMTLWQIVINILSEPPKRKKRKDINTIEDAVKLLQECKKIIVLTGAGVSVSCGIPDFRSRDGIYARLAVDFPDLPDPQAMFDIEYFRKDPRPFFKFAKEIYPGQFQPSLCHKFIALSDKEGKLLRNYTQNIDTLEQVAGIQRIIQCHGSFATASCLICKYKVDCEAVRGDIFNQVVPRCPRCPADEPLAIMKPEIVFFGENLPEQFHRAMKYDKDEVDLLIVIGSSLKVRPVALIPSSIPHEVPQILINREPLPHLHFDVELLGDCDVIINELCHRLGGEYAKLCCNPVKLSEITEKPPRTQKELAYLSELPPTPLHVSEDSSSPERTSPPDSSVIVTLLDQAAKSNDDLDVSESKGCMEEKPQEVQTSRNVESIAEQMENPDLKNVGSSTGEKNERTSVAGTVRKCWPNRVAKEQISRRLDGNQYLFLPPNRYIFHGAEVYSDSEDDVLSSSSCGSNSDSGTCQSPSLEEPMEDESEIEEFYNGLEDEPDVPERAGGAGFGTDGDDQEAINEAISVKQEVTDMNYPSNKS
Protocol: as §1, §2

[2] = Microsomal stability screen, human; conditions: 1 μM
[3] = Microsomal stability screen, mouse; conditions: 1 μM
SIRT2 = biological target: T3, SIRT2 (Homo sapiens, UniProt Q8IXJ6); assay: Fluor-de-Lys biochemical sirtuin deacetylation assay, SIRT2; conditions: 10 μM
T3 construct: recombinant active enzymes SIRT1, SIRT2, and the catalytically active fragment of SIRT3
T3 sequence (Q8IXJ6 1-389): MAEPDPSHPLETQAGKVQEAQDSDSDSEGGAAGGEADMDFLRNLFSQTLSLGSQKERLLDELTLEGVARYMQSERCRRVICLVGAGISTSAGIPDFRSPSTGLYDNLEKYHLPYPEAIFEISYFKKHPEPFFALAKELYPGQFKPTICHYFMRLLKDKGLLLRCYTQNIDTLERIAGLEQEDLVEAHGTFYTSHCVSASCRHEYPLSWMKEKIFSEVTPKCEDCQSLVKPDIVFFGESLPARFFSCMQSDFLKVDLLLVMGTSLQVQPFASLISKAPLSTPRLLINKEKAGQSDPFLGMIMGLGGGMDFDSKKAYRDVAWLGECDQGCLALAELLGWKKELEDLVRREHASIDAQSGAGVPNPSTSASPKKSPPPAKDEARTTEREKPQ

| SMILES | melting point | inhibition at 10 µM (SIRT2) | other results |
| --- | --- | --- | --- |
| O=C(Nc1ccc(Cl)cn1)c1cccc(S(=O)(=O)Nc2ccc(Cl)cn2)c1 [Compound 41, N-(5-chloropyridin-2-yl)-3-(N-(5-chloropyridin-2-yl)sulfamoyl)benzamide] |  |  | SIRT3 inhibition [1]: minimal SIRT3 inhibition |
| CN(c1ccc(F)cc1)S(=O)(=O)c1cccc(C(=O)Nc2ccc(Cl)cn2)c1 [Compound 43, N-(5-chloropyridin-2-yl)-3-(N-(4-fluorophenyl)-N-methylsulfamoyl)benzamide] |  |  | SIRT1 inhibition (SIRT1): minimal SIRT1 inhibition |
| CN(c1ccc(F)cc1)S(=O)(=O)c1cccc(C(=O)Nc2ccc(C#N)cc2)c1 [Compound 47, N-(4-Cyanophenyl)-3-(N-(4-fluorophenyl)-N-methylsulfamoyl)benzamide] |  |  | Mean remaining parent NADPH-free (%) [2]: 89%; Mean remaining parent with NADPH (%) [2]: 16% |
| CN(c1ccc(Cl)cc1)S(=O)(=O)c1cccc(C(=O)Nc2ccc(C(F)(F)F)cn2)c1 [Compound 56, 3-(N-(4-chlorophenyl)-N-methylsulfamoyl)-N-(5-(trifluoromethyl)pyridin-2-yl)benzamide] |  |  | SIRT1 inhibition (SIRT1): minimal SIRT1 inhibition |
| CN(c1ccc(Cl)cc1)S(=O)(=O)c1cccc(C(=O)Nc2ccc(C#N)cn2)c1 [Compound 71, 3-(N-(4-Chlorophenyl)-N-methylsulfamoyl)-N-(5-cyanopyridin-2-yl)benzamide] |  |  | Mean remaining parent NADPH-free (%) [2]: 91%; Mean remaining parent with NADPH (%) [2]: 2%; Mean remaining parent NADPH-free (%) [3]: 96%; Mean remaining parent with NADPH (%) [3]: 1% |
| CC(=O)c1ccc(N(C)S(=O)(=O)c2cccc(C(=O)Nc3ccc(Cl)cc3)c2)cc1 [Compound 102, 3-(N-(4-Acetylphenyl)-N-methylsulfamoyl)-N-(4-chlorophenyl)benzamide] |  |  | Mean remaining parent NADPH-free (%) [2]: 94%; Mean remaining parent with NADPH (%) [2]: 12%; Mean remaining parent NADPH-free (%) [3]: 108%; Mean remaining parent with NADPH (%) [3]: 0% |
| CC(=O)c1ccc(N(C)S(=O)(=O)c2cccc(C(=O)Nc3ccc(Cl)cn3)c2)cc1 [Compound 103, 3-(N-(4-Acetylphenyl)-N-methylsulfamoyl)-N-(5-chloropyridin-2-yl)benzamide] |  |  | Mean remaining parent NADPH-free (%) [2]: 82%; Mean remaining parent with NADPH (%) [2]: 12%; Mean remaining parent NADPH-free (%) [3]: 91%; Mean remaining parent with NADPH (%) [3]: 0% |
| COc1ccc(COc2cccc(C(=O)Nc3ccc(C#N)cn3)c2)cc1 [Compound 216d, N-(5-cyanopyridin-2-yl)-3-((4-methoxybenzyl)oxy)benzamide] | 132 to 134 °C | 8% |  |
| C[S+]([O-])c1ccc(COc2cccc(C(=O)Nc3ccc(C#N)cc3)c2)cc1 (stereo not shown) [Compound 216e] | 174 to 175 °C | 32% |  |
| COc1ccc(COc2cccc(C(=O)Nc3ccc(S(C)(=O)=O)cc3)c2)cc1 [Compound 216f, 3-((4-methoxybenzyl)oxy)-N-(4-(methylsulfonyl)phenyl)benzamide] | 173 to 174 °C | 36% |  |
| N#Cc1ccc(NC(=O)c2cccc(OCc3ccc(F)cc3)c2)cc1 [Compound 216g, N-(4-cyanophenyl)-3-((4-fluorobenzyl)oxy)benzamide] | 149 to 150 °C | 64% |  |
| COc1ccc(COc2cccc(C(=O)Nc3ccc([S+](C)[O-])cc3)c2)cc1 (stereo not shown) [Compound 216h, 3-((4-methoxybenzyl)oxy)-N-(4-(methylsulfinyl)phenyl)benzamide] | 135 to 136 °C | 50% |  |
| N#Cc1ccc(NC(=O)c2cccc(OCc3ccc(F)cc3)c2)nc1 [Compound 216i, N-(5-cyanopyridin-2-yl)-3-((4-fluorobenzyl)oxy)benzamide] | 170 to 171 °C | 15% |  |
| N#Cc1ccc(NC(=O)c2cccc(OCc3ccc(C(F)(F)F)cc3)c2)cc1 [Compound 216j, N-(4-cyanophenyl)-3-((4-(trifluoromethyl)benzyl)oxy)benzamide] | 167 to 168 °C | 67% |  |
| CS(=O)(=O)c1ccc(COc2cccc(C(=O)Nc3ccc(C#N)cc3)c2)cc1 [Compound 216k, N-(4-cyanophenyl)-3-((4-(methylsulfonyl)benzyl)oxy)benzamide] | 209 to 210 °C | 39% |  |
| N#Cc1ccc(NC(=O)c2cccc(OCc3ccc(OC(F)(F)F)cc3)c2)cc1 [Compound 216m, N-(4-cyanophenyl)-3-((4-(trifluoromethoxy)benzyl)oxy)benzamide] | 138 to 139 °C | 56% |  |
| N#Cc1ccc(NC(=O)c2cccc(OCc3ccc(Cl)cn3)c2)cc1 [Compound 216n, 3-((5-chloropyridin-2-yl)methoxy)-N-(4-cyanophenyl)benzamide] | 168 to 169 °C | 34% |  |
| N#Cc1ccc(COc2cccc(C(=O)Nc3ccc(C#N)cc3)c2)cc1 [Compound 216q, 3-((4-cyanobenzyl)oxy)-N-(4-cyanophenyl)benzamide] | 205 to 207 °C | 56% |  |
| C[C@@H](Oc1cncc(C(=O)Nc2ccc(C#N)cc2)c1)c1ccc(F)cc1 [Compound 216r, (R)—N-(4-cyanophenyl)-5-(1-(4-fluorophenyl)ethoxy)nicotinamide] | 151 to 152 °C | 69% |  |
| C[C@H](Oc1cncc(C(=O)Nc2ccc(C#N)cc2)c1)c1ccc(F)cc1 [Compound 216s, (S)—N-(4-cyanophenyl)-5-(1-(4-fluorophenyl)ethoxy)nicotinamide] | 152 to 153 °C | 27% |  |
| N#Cc1ccc(COc2cncc(C(=O)Nc3ccc(C#N)cc3)c2)cc1 [Compound 216t, 5-((4-cyanobenzyl)oxy)-N-(4-cyanophenyl)nicotinamide] | 266 to 268 °C (dec.) | 0% |  |
| CC(=O)c1ccc(COc2cncc(C(=O)Nc3ccc(C#N)cc3)c2)cc1 [Compound 216u, 5-((4-acetylbenzyl)oxy)-N-(4-cyanophenyl)nicotinamide] | 228 to 229 °C (dec.) | 0% |  |
| N#Cc1ccc(COc2cc(O)cc(C(=O)Nc3ccc(C#N)cc3)c2)cc1 [Compound 216w, 3-((4-cyanobenzyl)oxy)-N-(4-cyanophenyl)-5-hydroxybenzamide] | 199 to 201 °C | 15% |  |
| N#Cc1ccc(NC(=O)c2cccc(OCc3ccc(F)c(F)c3)c2)cc1 [Compound 216z, N-(4-cyanophenyl)-3-((3,4-difluorobenzyl)oxy)benzamide] | 173 to 174 °C | 64% |  |
| N#Cc1ccc(NC(=O)c2cccc(NCc3ccc(F)cc3)c2)cc1 [Compound 221a, N-(4-cyanophenyl)-3-((4-fluorobenzyl)amino)benzamide] | 173 to 174 °C | 41% |  |
| CN(Cc1ccc(F)cc1)c1cccc(C(=O)Nc2ccc(C#N)cc2)c1 [Compound 221c, N-(4-cyanophenyl)-3-((4-fluorobenzyl)(methyl)amino)benzamide] | 176 to 177 °C | 75% |  |
